Entries after “also recorded” stand apart in the source; their conditions may differ. Like-named read-outs stand apart in the source and are kept apart here.
Key:
[1] = cited from earlier work
[2] = Acidity comparison among methanediphosphonic acids; type: physicochemical; details: for acidity compared with other methanediphosphonic acids (in words): qualitative comparison
Protocol: (§1) The effect of fluorine substitution on the acidity of methanediphosphonic acid is of interest. Using the empirical equations developed by R. G. Grabenstetter et al. J. Phys. Chem. 71, 4194 (1967), estimated pK° values for mono and difluoro methanediphosphonic acid were calculated and compared with experimental pK° data for the parent acid. It should be noted that the cited work set forth two alternative Taft equations for pK°4 on giving an optimal fit with bulkier substitution (e.g., CH3) and one to fit data for less sterically hindering substituents (e.g., H).

[3] = Estimation of pK° values of mono and difluoro methanediphosphonic acid from 31P chemical shift data; type: physicochemical; details: calculated from 31P chemical shift data
Protocol: as §1

bone resorption = experiment: Inhibition of bone resorption; details: compared with known drugs; no test data given
[4] = experimental pK° data, parent acid
[5] = dichloro methanediphosphonic acid

## O=P(O)(O)CP(=O)(O)O [MDPA, methanediphosphonic acid]
[1]; [4]
  pK° 2: 3.1
  pK°3: 7.4
  pK° 4: 11.0

## O=P(O)(O)C(Cl)(Cl)P(=O)(O)O [dichloro methanediphosphonic acid]
[1]; [5]
  pK°3: 6.1
  pK° 4: 9.8
[2]
  acidity compared with other methanediphosphonic acids (in words): weaker than the difluoro substituted acid

## O=P(O)(O)C(F)(F)P(=O)(O)O [difluoro MDPA, Difluoro Methanediphosphonic Acid]
[2]; more acidic than the unfluorinated parent acid, calculated
  acidity of the fourth proton relative to unfluorinated parent acid: 100 fold
[2]
  acidity compared with other methanediphosphonic acids (in words): strongest of the halomethanediphosphonic acids
[3]; read-out: pK° 2
  pKa: 2.57
[3]; read-out: pK° 3
  pKa: 6.08
[3]; read-out: pK° 4
  pKa: 9.07
Bone resorption
  inhibition of bone resorption: inhibits bone resorption at least as effectively as known drugs

## O=P(O)(O)C(F)P(=O)(O)O [monofluoro MDPA, Fluoro Methanediphosphonic Acid]
[2]; listed as monofluoro acid
  acidity compared with other methanediphosphonic acids (in words): one order of magnitude below that of the parent acid; also recorded: comparable to that of dichloro methanediphosphonic acid
[3]; listed as monofluoro acid
  pK° 4: approximately 10.1
[3]; read-out: pK° 2
  pKa: 2.78
[3]; read-out: pK° 3
  pKa: 6.62
[3]; read-out: pK° 4
  pKa: 10.1

From patent US4478763A, “Process for preparing alpha-fluorinated alkanediphosphonates” (Univ. of Southern California, priority 1982, dated 1984)
